Experimental data as given in patent US5321130A, “Unsymmetrical cyanine dyes with a cationic side chain” (priority 1992, dated 1994).

How the values were obtained:
calf thymus DNA [1] = assay: Fluorescence emission spectra and enhancement on binding to calf thymus DNA; conditions: 0.4 μM dye; for λF (fluorescence maximum), bound to DNA: pH 7.4 + DNA; for Enhancement (QY + DNA)/(QY - DNA): pH 7.4, DNA:fluorophore ratio of 50 bp:1 or greater
Protocol: Fluorescence emission spectra of solutions (0.4 μM) of Compounds 1-8 in pH 7.4 buffer (10 mM Tris, 1 mM EDTA and 50 mM NaCl), after sufficient calf thymus DNA (Sigma Chemical Co. D-1501) is added to yield a ratio of 50 DNA base pairs per dye molecule or greater, are recorded on an Alphascan spectrofluorometer (PTI Inc.) with excitation at approximately (λA -25 nm) where λA is the absorption maximum of the dye bound to DNA (Table 2).
Solutions of each of Compounds 1-8 (0.4 μM) in pH 7.4 buffer (10 mM Tris, 1 mM EDTA and 50 mM NaCl) are prepared as above. Fluorescence emission spectra are recorded on an Alphascan spectrofluorometer (PTI Inc.) with excitation at approximately (λA -25 nm) where λA is the absorption maximum of the dye bound to DNA. After sufficient calf thymus DNA (Sigma Chemical Co. D-1501) is added to yield a ratio of 50 DNA base pairs per dye molecule or greater, fluorescence emission spectra are again recorded (Table 2). The spectra are integrated and enhancement ratio (Table 2) is calculated as follows: [formula] in which the ratio (A-)/(A+) is the ratio of the absorbances for the free and bound dye respectively at the excitation wavelength.

[2] = Absorption spectra of free dye in methanol or pH 7.4 buffer; type: physicochemical; conditions: no DNA
Protocol: (§1) The strength of absorption and/or fluorescence is indicated by the extinction coefficient. The maximum extinction coefficient (εmax) for the unbound dyes is calculated from the longest wavelength absorption maximum according to the Beer-Lambert law based on the known concentration of the solutions. The extinction coefficient for the dye bound to DNA is calculated from the change in maximum absorbance compared to the dye in free aqueous solution. Typically the extinction coefficient for both bound and unbound dyes is between about 50,000 M^-1 cm^-1 and about 150,000 M^-1 cm^-1.
(§2) Solutions of Compounds 1-8 are prepared by accurately weighing 5 mg quantities and dissolving in DMSO (dimethylsulfoxide) to give a 1 mg/ml stock solution. These solutions are diluted 200 fold into either methanol or a pH 7.4 buffer solution comprising 10 mM Tris, 1 mM EDTA and 50 mM NaCl. Each absorption spectrum is recorded on an IBM Instruments 9420 spectrophotometer. The absorption maximum for each dye without the presence of nucleic acid polymers (λA) is tabulated (Table 2). To the solutions of Compounds 1-8 in pH 7.4 buffer is added sufficient calf thymus DNA (Sigma Chemical Co. D-1501) stock solution calculated to yield a ratio of 50 DNA base pairs per dye molecule or greater. The absorption maximum for each dye bound to DNA is again tabulated (Table 2). […] Where the spectra are not rescaled, the changes in extinction coefficient and absorption wavelength range accompanying binding to DNA are clearly illustrated (FIG. 2).

calf thymus DNA [3] = assay: Absorption spectra of dye bound to calf thymus DNA; type: binding; conditions: pH 7.4 + DNA, ratio of 50 DNA base pairs per dye molecule or greater
Protocol: Absorption spectra of solutions of Compounds 1-8 (4 μM) in pH 7.4 buffer (10 mM Tris, 1 mM EDTA and 50 mM NaCl) are recorded on a Perkin-Elmer Lambda 6 spectrophotometer after the addition of sufficient calf thymus DNA (Sigma Chemical Co. D-1501) to yield a ratio of 50 DNA base pairs per dye molecule or greater. The spectra are normalized to a maximum absorbance of 1.0 by numerical rescaling.
The absorption spectrum of Compound 4 in buffer, prepared as for FIG. 1, is recorded on a Perkin-Elmer Lambda 6 spectrophotometer before and after addition of calf thymus DNA. The spectra are not rescaled, illustrating the changes in extinction coefficient and absorption wavelength range accompanying binding to DNA.
as §1, §2

[4] = system: DNA of mouse fibroblast 3T3 cells; assay: Analysis of cellular DNA content (lysed 3T3 cells, fluorescence); type: cell-based
Protocol: Mouse fibroblast 3T3 cells aliquoted into microtiter plates are subjected to a freeze/thaw protocol to lyse cells and release DNA into solution. Compound 3 in TNE buffer is added to each well and the plates are scanned in a Cytofluor 2350 microtiter plate reader (Millipore Corp.) with excitation at 485 nm and emission detected at 530 nm. […] Treatment of half the wells with 20 μg/ml DNAse 1 for one hour at 37° C. in DNAse 1 buffer (10 mM MnCl2, 50 mM TRIS, pH 7.7) eliminates more than 95% of the fluorescence (filled circles).
The method of Rago et al. [Analytical Biochemistry 191, 31 (1990)] is adapted for use with the nucleotide-specific stain Compound 3. 3T3 cells (a mouse fibroblast cell line) are aliquoted into 96-well microtiter plates and allowed to adhere over a period of 4 hours. Cell numbers used are between 100 and 100,000 in 100 μl of Dulbecco's Modified Eagle Medium (DMEM). […]
For fluorescence analysis, 100 μl of distilled water is added to each well and the plates incubated at 37° C. for one hour, frozen at -80° C. then thawed to room temperature. […] 100 μl of 10 μM Compound 3 in TNE buffer (2 M NaCl, 10 mM TRIS, 1 mM EDTA pH 7.4) is added to each well and the plates scanned in a Cytofluor 2350 microtiter plate reader (Millipore Corp.) with excitation at 485 nm and emission detected at 530 nm. […]

calf thymus DNA [5] = assay: Dye/nucleic acid affinity: partition coefficient Kp by fluorescence titration with DNA; type: binding
Protocol: The fluorescence intensity (F) determined in a fluorescence plate reader (CytoFluor from Millipore Corporation), is measured versus DNA concentration expressed in terms of base pairs concentration (B). […] In all the titrations, [Dye]/[Base Pair] is always […] than 3 to fulfill the requirements of the partition model.
The nucleic acid/water partition coefficient (Kp) representing the relative affinity of the dye for DNA is calculated from the fluorescence data according to the following formula:
1/F=[5.6·10^7 /(Kp Fo)](1/B)+1/Fo
where 5.6·10^7 (μM) is water molar concentration; B is the concentration of base pairs; and Fo is the fluorescence enhancement at saturation. Table 3 gives the Kp values of representative dyes via the partition model in the presence of 10% ethanol.

DNA or RNA = assay: Optical properties upon binding with DNA or RNA (general statements); conditions: binding to nucleic acid polymers
Description: The enhanced fluorescence of the dyes in the bound versus unbound state is exemplified in Table 2. In particular, the absorption curve typically shifts to a longer wavelength. Typically, the absorption curve shift is between about 5 and about 20 nm. […] When combined with nucleic acid polymers, the novel dyes of this invention generally have a Stokes shift of between about 15 to about 30 nm. Table 2 includes the excitation and emission maxima (λA and λF respectively) for Compounds 1-8.
The fluorescence of the novel dyes bound to DNA or RNA is enhanced at least about 9 fold. Typically fluorescence is enhanced at least about 100 fold, sometimes as much as 1000 fold or more, depending on the amount and purity of the dye present in the sample (Table 2). This significant increase in fluorescence intensity reduces or eliminates the problem of background fluorescence due to unbound dye, thus avoiding the necessity to separate the unbound dye before measuring the fluorescence. Even where the dyes are intrinsically fairly fluorescent, however, such that the enhancement in fluorescence quantum yield which results from binding to nucleic acid polymers is less than 10 fold (e.g. Compound 5), the significant shift in absorption maxima that results from such binding (see Table 2, FIG. 2) can be used to quantitatively or qualitatively measure the presence of nucleic acid polymers.

Row | λF (fluorescence maximum), bound to DNA (calf thymus DNA [1]) | εmax (extinction coefficient) ([2]; methanol) | λA (absorption maximum) ([2]; methanol) | εmax (extinction coefficient) ([2]; pH 7.4 buffer) | λA (absorption maximum) ([2]; pH 7.4 buffer) | εmax (extinction coefficient), bound to DNA (calf thymus DNA [3]) | λA (absorption maximum), bound to DNA (calf thymus DNA [3]) | enhancement in fluorescence quantum yield on binding (DNA or RNA) | Compound | Enhancement (QY + DNA)/(QY - DNA) (calf thymus DNA [1]) | fluorescence eliminated by DNAse 1 treatment ([4]; 20 μg/ml DNAse 1, one hour, 37° C.) | fluorescence versus cell number ([4]; Ex 485 nm, Em 530 nm, TNE buffer) | effect of ethanol on DNA affinity (Kp) (calf thymus DNA [5]; 10% ethanol) | apparent affinity Kp, effect of dye concentration (calf thymus DNA [5]; binding buffer without ethanol, 0.1 vs 0.22 μM dye)
1 | 455 nm | 77,500 M^-1 cm^-1 | 423 nm | 75,500 M^-1 cm^-1 | 423 nm | 50,100 M^-1 cm^-1 | 435 nm | – | C[n+]1c(C=C2C=CN(CCC[N+](C)(C)C)C=C2)oc2ccccc21 [Compound 1] | 456 x | – | – | – | –
2 | 481 nm | 80,200 M^-1 cm^-1 | 452 nm | 76,200 M^-1 cm^-1 | 451 nm | 58,100 M^-1 cm^-1 | 462 nm | – | C[n+]1c(C=C2C=CN(CCC[N+](C)(C)C)C=C2)sc2ccccc21 [Compound 2] | 892 x | – | – | – | –
3 | 562 nm | – | 525 nm | – | 523 nm | – | 532 nm | less than 10 fold | C[n+]1c(C=CC=CC=C2C=CN(CCC[N+](C)(C)C)C=C2)oc2ccccc21 [Compound 5] | 9 x | – | – | – | –

The remaining lines, values behind:

Row | Compound | λF (fluorescence maximum), bound to DNA (calf thymus DNA [1]) | εmax (extinction coefficient) ([2]; methanol) | λA (absorption maximum) ([2]; methanol) | εmax (extinction coefficient) ([2]; pH 7.4 buffer) | λA (absorption maximum) ([2]; pH 7.4 buffer) | εmax (extinction coefficient), bound to DNA (calf thymus DNA [3]) | λA (absorption maximum), bound to DNA (calf thymus DNA [3]) | enhancement in fluorescence quantum yield on binding (DNA or RNA) | Enhancement (QY + DNA)/(QY - DNA) (calf thymus DNA [1]) | fluorescence eliminated by DNAse 1 treatment ([4]; 20 μg/ml DNAse 1, one hour, 37° C.) | fluorescence versus cell number ([4]; Ex 485 nm, Em 530 nm, TNE buffer) | effect of ethanol on DNA affinity (Kp) (calf thymus DNA [5]; 10% ethanol) | apparent affinity Kp, effect of dye concentration (calf thymus DNA [5]; binding buffer without ethanol, 0.1 vs 0.22 μM dye)
4 | C[n+]1c(C=C2C=CN(CCC[N+](C)(C)C)c3ccccc32)oc2ccccc21 [Compound 3] | 509 nm | 72,600 M^-1 cm^-1 | 482 nm | 66,000 M^-1 cm^-1 | 481 nm | 52,013 M^-1 cm^-1 | 491 nm | – | 925 x | more than 95% | linear increase of fluorescence with cell number | – | –
5 | C[n+]1c(C=C2C=CN(CCC[N+](C)(C)C)c3ccccc32)sc2ccccc21 [Compound 4] | 531 nm | 73,800 M^-1 cm^-1 | 507 nm | 68,500 M^-1 cm^-1 | 506 nm | 62,800 M^-1 cm^-1 | 515 nm | – | 1806 x | – | – | ethanol decreases the DNA affinity | larger with 0.1 μM dye than with 0.22 μM
6 | C[n+]1c(C=CC=CC=C2C=CN(CCC[N+](C)(C)C)C=C2)sc2ccccc21 [Compound 6] | 599 nm | – | 564 nm | – | 560 nm | – | 575 nm | – | 29 x | – | – | – | –
7 | C[n+]1c(C=CC=C2C=CN(CCC[N+](C)(C)C)c3ccccc32)oc2ccccc21 [Compound 7] | 631 nm | 133,100 M^-1 cm^-1 | 600 nm | 122,000 M^-1 cm^-1 | 596 nm | 100,100 M^-1 cm^-1 | 612 nm | – | 155 x | – | – | – | –
8 | C[n+]1c(C=CC=C2C=CN(CCC[N+](C)(C)C)c3ccccc32)sc2ccccc21 [Compound 8] | 661 nm | 143,200 M^-1 cm^-1 | 635 nm | 98,200 M^-1 cm^-1 | 631 nm | 102,000 M^-1 cm^-1 | 642 nm | – | 80 x | – | – | – | –
